Assay results as given in patent US6894068B2, “Substituted benzimidazoles as non-nucleoside inhibitors of reverse transcriptase” (The United States of America as represented by the …, priority 1997, dated 2005).
Values joined by “and” are separate entries in the source; they are usually repeats but may differ in a detail not shown here. Equal entries are not always repeated. Where two headings read alike, the source gives them in different places.

What was measured:
HIV-1 WT RT = HIV-1 WT RT (Human immunodeficiency virus type 1 group M subtype B, UniProt P03366); test: biochemical; assay type: biochemical; settings: for inhibition at 10 µM: read-out: % inhibn (10 μM)
HIV-1 WT virus (NL4-3) = test: microbe, parasite or virus in culture; assay type: cell-based; settings: for cytotoxicity and anti-viral effect, summary graph, result in words: FIGS. 10-12; for EC50 / EC50 (μM): Table 11, CEMSS/NL4-3, NRVC = no reduction in viral CPE; for EC50: read-out: EC50; for inhibitory potency against HIV-1 (CIC50), result in words: CEMSS cell culture, WT virus (NL4-3), relative to parent compounds 1 and 2
Description: Evaluation of these compounds for the inhibition of HIV-1 was determined as the fifty percent cell culture inhibitory concentration (CIC50) in CEMSS cell culture with WT virus (NL4-3).
In this Example, the antiviral and cellular toxicity of NNRTIs was investigated, using the cytopathic cell killing assay described by Yang (Yang et al., “Characteristics of a Group of Non-nucleoside Reverse Transcriptase Inhibitors with Structural Diversity and Potent Anti-Human Immunodeficiency Virus Activity,” Leukemia 9:S75-S85 [1995]). Briefly, in this method cells (e.g., the CEM-SS cell line, available from the NIAID AIDS Research and Reference Program [ARRRP]) were seeded at a density of 5×10^3 cells/well, into the wells of a 96-well microtiter plate. The cells were then infected with HIV virus (either mutant or WT), at a multiplicity of infection (MOI) previously determined to provide complete cell killing by 6 days of culture post-infection (e.g., MOI of 0.01-0.05). Each of the HIV isolates was pre-titered to induce equivalent levels of infection based on cell killing or virus production, prior to their use in these assays. A range of test compound concentrations was added to the wells in triplicate (e.g., serial half-log dilutions) to evaluate inhibition of HIV infection. Controls for each assay included drug controls (drug colorimetric control wells), drug cytotoxicity control wells (cells with drug), virus control wells (cells with virus), and cell viability controls (cells only). Positive control drugs (e.g. AZT and ddC) were also run in parallel.
After six days of incubation at 37° C., cell viability was determined spectrophotometrically at 450 nm for each well, using the metabolic reduction of XTT to a soluble colored formazan. (See, Gartner and Popovic, “Virus Isolation and Production, in Aldovini and Walker (eds.), Techniques in HIV Research, Stockton Press, NY, pp. […] [1991]; and Nara and Fischinger, “Quantitative Infectivity Assay for HIV-1 and HIV-2, ” Nature 332:469-470 [1988]).
The in vitro therapeutic index (TI50) was defined as the fold-difference between the EC50 and IC50. The results for the various compounds are included in FIGS. 8 and 19.

[1] = Human immunodeficiency virus 1, NL43, CEM-SS

SMILES | melting point | also measured
Cc1cccc2c1nc(-c1ccc3ccccc3c1)n2Cc1c(F)cccc1F | 175 to 176 °C | –
Fc1cccc(F)c1Cn1c(-c2c(F)cccc2F)nc2cc(Cl)ccc21 | 136 °C and 136 to 137 °C | –
Fc1cccc(F)c1Cn1c(-c2ccccc2)nc2ccccc21 | 163 °C | –
Fc1cccc(F)c1Cn1c(-c2c(F)cccc2F)nc2ccc(Cl)cc21 | 152 to 153 °C | –
Cc1cccc2c1nc(-c1cccnc1)n2Cc1c(F)cccc1F | 186 to 188 °C | –
Cc1ccc2c(c1)nc(-c1c(F)cccc1F)n2Cc1c(F)cccc1F | 147 to 149 °C | –
Cc1cccc2c1nc(-c1ccncc1)n2Cc1c(F)cccc1F | 171 to 172 °C | –
Cc1ccc2nc(-c3c(F)cccc3F)n(Cc3c(F)cccc3F)c2c1 | 172 to 173 °C | –
Cc1cccc2c1nc(-c1c(F)cccc1F)n2Cc1c(F)c(F)c(F)c(F)c1F | 155 to 156 °C | –
Cc1cccc2nc(-c3c(F)cccc3F)n(Cc3c(F)cccc3F)c12 | 177 °C and 177 to 178 °C | –
Cc1cccc2c1nc(-c1c(F)cccc1F)n2Cc1cccnc1 | 131 to 132 °C | –
Cc1ccc2c(nc(-c3c(F)cccc3F)n2Cc2c(F)cccc2F)c1C | 176 to 177 °C | –
O=S(=O)(c1ccccc1)n1c(-c2c(F)cccc2F)nc2ccccc21 | 104 to 106 °C | –
Cc1cc(C)c2nc(-c3c(F)cccc3F)n(Cc3c(F)cccc3F)c2c1 | 153 to 154 °C | –
O=[N+]([O-])c1ccc2c(c1)nc(-c1c(F)cccc1F)n2Cc1c(F)cccc1F | 168 to 169 °C | –
COc1cccc2c1nc(C1CC1)n2Cc1c(F)cccc1F | 136 to 139 °C | –
COC(=O)c1cccc2c1nc(-c1c(F)cccc1F)n2Cc1c(F)cccc1F | 184 to 186 °C | –
CC(C)=CCn1c(-c2c(F)cccc2F)nc2c(C)cccc21 [(X = CH3) R = prenyl, 1-(3,3-dimethylallyl)-2-(2,6-difluorophenyl)-4-methylbenzimidazole] | 78 to 79 °C | –
Fc1cccc(F)c1-c1nc2ccccc2n1Cc1ccccc1 [Compound 28, 1-benzyl-2-(2,6-difluorophenyl)benzimidazole] | 124 °C | RT inhibition, result in words (HIV-1 WT RT; WT RT): decrease in inhibition
Cc1cccc2c1nc(-c1c(F)cccc1F)n2Cc1ccccc1 [Compound 29, 1-benzyl-2-(2,6-difluorophenyl)-4-methylbenzimidazole] | 112 to 117 °C | RT inhibition, result in words (HIV-1 WT RT; WT RT): decrease in inhibition
Cc1cccc2c1nc(-c1c(F)cccc1F)n2Cc1c(Cl)cccc1Cl [Compound 30, 1-(2,6-dichlorobenzyl)-2-(2,6-difluorophenyl)-4-methylbenzimidazole] | 202 to 203 °C | RT inhibition, result in words (HIV-1 WT RT; WT RT): decrease in inhibition

SMILES | melting point | also measured
Fc1cccc(F)c1COCc1nc2ccccc2n1Cc1c(F)cccc1F [Compound 32, 1-(2,6-difluorobenzyl)-2-(2,6-difluorobenzyloxymethyl)benzimidazole] | 109 °C | –
Cc1cccc2c1nc(C(C)C)n2Cc1c(F)cccc1F [Compound 34, 1-(2,6-difluorobenzyl)-2-isopropyl-4-methylbenzimidazole] | 151 to 153 °C | cytotoxicity and anti-viral effect, summary graph, result in words (HIV-1 WT virus (NL4-3)): effective therapeutic dose
Cc1nc2ccccc2n1Cc1c(F)cccc1F [Compound 35, 1-(2,6-difluorobenzyl)-2-methylbenzimidazole] | 99 °C | –
Cc1cccc2c1nc(-c1cccc3ccccc13)n2Cc1c(F)cccc1F [Compound 37, 1-(2,6-difluorobenzyl)-2-(1-naphthyl)-4-methylbenzimidazole] | 121 to 123 °C | –
Fc1cccc(F)c1Cn1c(-c2c(F)cccc2F)nc2cc(Br)ccc21 [Compound 38, 1-(2,6-Difluorobenzyl)-2-(2,6-difluorophenyl)-5-bromobenzimidazole] | 155 to 156 °C | cytotoxicity and anti-viral effect, summary graph, result in words (HIV-1 WT virus (NL4-3)): inactive
O=C(c1c(F)cccc1F)n1c(-c2c(F)cccc2F)nc2ccccc21 [Compound 47, 1-(2,6-difluorobenzoyl)-2-(2,6-difluorophenyl)benzimidazole] | – | inhibition at 10 µM (HIV-1 WT RT; Table 2, 10 μM drug, WT RT, rC-dG template primer): 8%; RT inhibition, result in words (HIV-1 WT RT; WT RT): did not show appreciable RT inhibition activity
Cc1cccc2c1nc(CO)n2Cc1c(F)cccc1F [Compound 48, 1-(2,6-difluorobenzyl)-2-hydroxymethyl-4-methylbenzimidazole] | – | EC50 (HIV-1 WT virus (NL4-3)): 2400 nM; inhibition at 10 µM (HIV-1 WT RT; Table 3, 10 μM drug, WT RT, rC-dG template primer): 12%; % inhibn (1 μM) (HIV-1 WT RT; Table 6, 1 μM drug, WT HIV-1 RT, average of two experiments done in triplicates): 51%; IC50 (HIV-1 WT RT; Table 11, WT RT, read-out: IC50): 1880 nM
CC(=O)OCc1cccc2c1nc(-c1c(F)cccc1F)n2Cc1c(F)cccc1F [Compound 51, 1-(2,6-difluorobenzyl)-2-(2,6-difluorophenyl)-4-acetoxymethylbenzimidazole] | – | EC50 (HIV-1 WT virus (NL4-3); [1]): 59 nM
Oc1cccc2c1nc(-c1c(F)cccc1F)n2Cc1c(F)cccc1F [Compound 52, 1-(2,6-Difluorobenzyl)-2-(2,6-difluorophenyl)-4-hydroxyl-benzimidazole] | 257 to 259 °C | EC50 (HIV-1 WT virus (NL4-3); [1]): 650 nM
N#Cc1cccc2c1nc(-c1c(F)cccc1F)n2Cc1c(F)cccc1F [Compound 60, 1-(2,6-difluorobenzyl)-2-(2,6-difluorophenyl)-4-cyanobenzimidazole] | – | EC50 (HIV-1 WT virus (NL4-3); [1]): 430 nM
N=C(NO)c1cccc2c1nc(-c1c(F)cccc1F)n2Cc1c(F)cccc1F [Compound 61, N-hydroxy 1-(2,6-difluorobenzyl)-2-(2,6-difluorophenyl)benzimidazole-4-carboxamidine] | 214 to 216 °C and 213 to 216 °C | inhibitory potency against HIV-1 (CIC50), result in words (HIV-1 WT virus (NL4-3)): clearly detrimental to potency; EC50 (HIV-1 WT virus (NL4-3); [1]): 190 nM
NC(=O)c1cccc2c1nc(-c1c(F)cccc1F)n2Cc1c(F)cccc1F [Compound 62, 1-(2,6-difluorobenzyl)-2-(2,6-difluorophenyl)benzimidazole-4-carboxylic acid amide] | 260 to 261 °C | inhibitory potency against HIV-1 (CIC50), result in words (HIV-1 WT virus (NL4-3)): clearly detrimental to potency; EC50 (HIV-1 WT virus (NL4-3); [1]): 4900 nM
O=C(O)c1cccc2c1nc(-c1c(F)cccc1F)n2Cc1c(F)cccc1F [Compound 64, 1-(2,6-Difluorobenzyl)-2-(2,6-difluorophenyl)benzimidazole-4-carboxylate] | 179 to 180 °C and 178 to 180 °C | inhibitory potency against HIV-1 (CIC50), result in words (HIV-1 WT virus (NL4-3)): clearly detrimental to potency; EC50 (μM) (HIV-1 WT virus (NL4-3)): NRVC
CC(C)(O)c1cccc2c1nc(-c1c(F)cccc1F)n2Cc1c(F)cccc1F [Compound 65, 1-(2,6-Difluorobenzyl)-2-(2,6-difluorophenyl)-4-benzimidazoyl-2-propanol] | – | EC50 (HIV-1 WT virus (NL4-3)): 6340 nM
C=C(C)c1cccc2c1nc(-c1c(F)cccc1F)n2Cc1c(F)cccc1F [Compound 66, 1-(2,6-Difluorobenzyl)-2-(2,6-difluorophenyl)-4-isopropenylbenzimidazole] | 156 to 158 °C | EC50 (HIV-1 WT virus (NL4-3); [1]): 1440 nM
OCc1cccc2c1nc(-c1c(F)cccc1F)n2Cc1c(F)cccc1F [Compound 67, 1-(2,6-Difluorobenzyl)-2-(2,6-difluorophenyl)-4-hydroxymethylbenzimidazole] | – | EC50 (HIV-1 WT virus (NL4-3); [1]): 23 nM
O=Cc1cccc2c1nc(-c1c(F)cccc1F)n2Cc1c(F)cccc1F [Compound 68, 1-(2,6-Difluorobenzyl)-2-(2,6-difluorophenyl)-benzimidazole-4-carbaldehyde] | 151 to 153 °C | EC50 (HIV-1 WT virus (NL4-3); [1]): 120 nM
Fc1cccc(F)c1Cn1c(-c2c(F)cccc2F)nc2c(CCl)cccc21 [Compound 69, 1-(2,6-difluorobenzyl)-2-(2,6-difluorophenyl)-4-chloromethylbenzimidazole] | 143 to 144 °C | EC50 (HIV-1 WT virus (NL4-3); [1]): 180 nM
CC(=O)NCc1cccc2c1nc(-c1c(F)cccc1F)n2Cc1c(F)cccc1F [Compound 72] | – | EC50 (μM) (HIV-1 WT virus (NL4-3)): NRVC
CC(=O)N(C)Cc1cccc2c1nc(-c1c(F)cccc1F)n2Cc1c(F)cccc1F [Compound 73, 1-(2,6-Difluorobenzyl)-2-(2,6-difluorophenyl)-4-(N-acetyl-N-methyl)-aminomethylbenzimidazole] | – | EC50 (HIV-1 WT virus (NL4-3)): 580 nM
N#Cc1cccc2c1nc(-c1c(F)cccc1F)n2Cc1c(F)cccc1F [Compound 4007] | – | % inhibn (10 μM) (HIV-1 WT RT; Table 1, 10 μM drug, WT RT, rC-dG template primer): 26%
